Results on eight compounds are retold here after US20250205339A1, “FORMULATION HAVING IMPROVED ABSORBABILITY OF LOW-SOLUBLE AND/OR LOW-MEMBRANE-PERMEABLE DRUG” (MEDRx Co., Ltd., priority 2022, published 2025).

The subject of series [1] is Caco-2 cells. The protocol:
In order to study an ionic liquid for enhancing the intestinal absorption effect of a drug with low solubility and/or low permeability, various types of ionic liquids were prepared and the permeability of a drug with low solubility and/or low permeability in compositions comprising the prepared ionic liquid and the drug was evaluated. Specifically, the permeability of a drug was evaluated by the Caco-2 cell membrane permeation assay according to the following procedures for compositions comprising VZ185, which is PROTAC, used as a model drug with low solubility and/or low permeability and each ionic liquid.
Sodium hydroxide (0.4 g) was dissolved in water (100 mL) to prepare 0.1N NaOH solution. MES (2-morpholinoethanesulfonic acid, 1.493 g) and D-glucose (2.453 g) were dissolved in HBSS (+) (free of phenol red) (600 mL), the solution was adjusted to pH 6.5 with 0.1N NaOH solution, and then HBSS (+) (free of phenol red) was further added and adjusted to 700 mL. The solution was sterilized by filtration through 0.22 μm membrane filter to prepare Transport Buffer (A).
HEPES (1.192 g), D-glucose (1.752 g) and BSA (1.25 g) were then dissolved in HBSS (+) (free of phenol red) (400 mL), the solution was adjusted to pH 7.4 with 0.1N NaOH solution, and then HBSS (+) (free of phenol red) was further added and adjusted to 500 mL. The solution was sterilized by filtration through 0.22 μm membrane filter to prepare Transport Buffer (B). • (2) Preparation of Sample Solution
VZ185 (1.5 mg) was mixed with 1% TWEEN 80 (1.5 mL) to 1 mg/ml of VZ185 solution. Each organic acid (0.05 mmol) which is an anion ingredient and each cationic lipid (0.05 mmol) which is a cation ingredient were mixed with Transport Buffer (A) (4.98 mL) to prepare an ionic liquid composition comprising 10 mM each of the ingredients.
1 mg/mL of VZ185 solution (25 μL) and the ionic liquid composition or control composition (475 μL) were mixed to prepare 50 μg/mL of a drug-ionic liquid composition or a drug-control composition. […]

Series [2] can be described thus: Parallel Artificial Membrane Permeation Assay (PAMPA). Particulars: Examples 3 and 4, FIG. 1-3; isostearic acid-DODMA, isostearic acid-DODAP, oleic acid-DODMA (5 mM each ingredient); control PBS. It counts as in vitro ADME. The protocol:
In this assay, VZ185 and BI-3663 were used as a drug with low solubility and/or low permeability, and isostearic acid-DODMA, isostearic acid-DODAP and oleic acid-DODMA were used as an ionic liquid. As the control, PBS was used.
Specifically, the permeability of the drugs was evaluated by Parallel Artificial Membrane Permeability Assay-Skin Kit (BioAssay Systems) according to the following procedures. • (1) Preparation of Phosphate Buffer Solution (PBS)
One tablet of Phosphate Buffered Saline Tablet (Sigma) was dissolved in 200 mL of water to prepare PBS. • (2) Preparation of Sample Solution
Also, PBS (475 μL) was mixed with 1 mg/mL of VZ185 solution (25 μL) to prepare 50 μg/mL of a drug-control solution as the control.
4% Lecithin/dodecane solution (5 μL) was then added into each donor well and allowed to stand. PBS (300 μL) was added into each acceptor well and 50 μg/mL of the drug-ionic liquid composition (200 μL) was added into each donor well, and the mixture was incubated in a thermostatic bath at 37° C. […] The sample solution of BI-3663 was prepared according to the same procedure.

For series [3] the following is noted: cited from earlier work.
Series [4] has as its system Caco-2 cells. This is another data set of the same source.
Series [5] relates to Caco-2 cells. In words: Cell membrane integrity by permeability of Lucifer Yellow. Particulars: Example 1; after VZ185 permeation test with 10 mM ionic liquid or control composition (5 mM where labelled); 60 min; standard value <1%.
Series [6] has as its system Caco-2 cells. In words: Cell membrane integrity by Trans-Epithelial Electrical Resistance (TEER). Particulars: Example 1; Caco-2 monolayer exposed to VZ185 50 μg/mL with 10 mM ionic liquid or control composition (5 mM where labelled); standard value >1000Ω.
Series [7] deals with Caco-2 cells. This is another data set of the same source.

Values after ≈ are worked out from the molar mass of the structure shown. Like-named read-outs stand apart in the source and are kept apart here.

On to `COc1cc(C(=O)NCCOCCOCCOCCC(=O)Nc2cccc3c2C(=O)N(C2CCC(=O)NC2=O)C3=O)ccc1Nc1ncc(C(F)(F)F)c(Oc2cccc3c2C(=O)CC3)n1` (stereo not shown) [BI-3663], for which the “absorbability of BI-3663 by use of the ionic liquids” value in series [1] is on record as “remarkably improved”. In addition, the “absorbability of the drug by the PAMPA with ionic liquids” value (“absorbability of the drug by the PAMPA” below) in series [2] was “remarkably improved”. Further, in series [3], the Solubility is <1 µg/mL.
Take `CC(O)C(=O)O` (stereo not shown) [Lactic acid, lactic acid]: the TEER in series [4] (human, 10 mM) was 550 Ω.
For the compound `O=C([O-])CCCCCCCNC(=O)c1ccccc1O.[Na+]` [SNAC, salcaprozate sodium], the “Lucifer Yellow (%)” value in series [5] was 4.3%. In addition, in series [6], the TEER is on record as 210 Ω.
In the case of `CCCCCCCC/C=C\CCCCCCCC(=O)[O-].[Na+]` [Sodium oleate, sodium oleate], the TEER in series [6] is recorded as 100 Ω.
On to `COc1cc(-c2cn(C)c(=O)c3cnccc23)cc(OC)c1CN1CCN(CCCCCOc2cc(-c3scnc3C)ccc2CNC(=O)[C@@H]2C[C@@H](O)CN2C(=O)[C@@H](NC(=O)C2(F)CC2)C(C)(C)C)CC1` [VZ185], for which the “absorbability of VZ185 by use of the ionic liquids” value in series [1] is recorded as “remarkably improved”. For the same compound, the “absorbability of the drug by the PAMPA” value in series [2] was “remarkably improved”. For the same compound, in series [3], the Solubility is 85 µg/mL (≈ 85.4 µM).
As to `c1ccc(-c2ccc(C(c3ccccc3)n3ccnc3)cc2)cc1` (stereo not shown) [bifonazole], the “absorbability of bifonazole by use of the ionic liquid” value in series [1] was “remarkably improved”. Besides, the “absorbability of the drug by the PAMPA” value in series [2] is given as “remarkably improved”.
Oleic acid-Arginine: in series [4], the TEER is 3560 Ω. Moreover, the “Lucifer Yellow (%)” value in series [7] is given as 0.1%.
Regarding Oleic acid-Trometamol, the TEER in series [4] is 4750 Ω. The “Lucifer Yellow (%)” value in series [7] is 0.1%.
